According to EP4650362A1, “NEUROPROTECTIVE PSD-95 POLYPEPTIDE INHIBITOR AND USE THEREOF” (Beijing Tuo Jie Biopharmaceutical Co. Ltd., priority 2023, dated 2024):
Where “and” joins values, the source holds several entries; their conditions need not be identical. Equal entries are not always repeated.

How the values were obtained:
[1] = plasma stability test, rat plasma; format: in vitro ADME; settings: 2 µM (test control)
Method: (§1) This test example assessed the in vitro stability of polypeptide compounds in rat and human plasma, and is divided into two parts: 1) the stability of the individual polypeptide compounds in rat and human plasma; and 2) the stability of the polypeptide compounds in rat and human plasma when the polypeptide compounds are administered simultaneously with alteplase (rt-PA).
(§2) Solution preparation: An appropriate amount of a test polypeptide compound was weighed out and dissolved in an appropriate amount of 1× PBS to form a 1 mM test solution. NA-1 and NoNO42 were used as positive drugs, propantheline bromide was used as a human plasma test control, and lovastatin was used as a rat plasma test control.
(§3) Plasma stability test: 12.5 µL of the 1 mM test solution was added to a 495 µL pre-incubated plasma sample. The prepared plasma sample was added to centrifuge tubes of different incubation times (0 min, 10 min, 20 min, 30 min, 60 min, and 120 min) (50 µL/tube), and the tubes were then incubated in a water bath at 37 °C with shaking at 60 rpm. For each incubation time, two parallel samples were set. Subsequently, 200 µL of stop solution was added to stop the incubation, and the mixtures were vortexed for 5 min. Then the mixtures were centrifuged at 10,000 rpm at 4 °C for 10 min to remove the protein in the sample, and 70 µL of the supernatant was transferred to a new 96-well plate (70 µL of water was added to each well beforehand) and well mixed.
(§4) The remaining compound content at each time point was determined by LC-MS/MS, and the relative remaining compound contents at the other time points were calculated with the content at 0 min as a standard (100%).
(§5) Sample pretreatment: A 30 µL plasma sample was taken and added to 120 µL of a 5% solution of formic acid in methanol containing 1 ng/mL internal standard (verapamil). The mixture was vortexed for 5 min and centrifuged at low temperature at 10,000 rpm for 10 min. 70 µL of the supernatant was taken, and 70 µL of a 0.1% aqueous solution of formic acid was added and well mixed, and the mixture was injected into an LC-MS system for analysis.
(§6) LC-MS analysis: (1) Chromatographic conditions: mobile phase A: 0.1% formic acid in water; mobile phase B: 0.1% formic acid in acetonitrile; flow rate: 0.5 mL/min; injection volume: 10 µL; chromatography column: nanomicro Unisil C18aq (4.6 mm × 150 mm, 5 µm); column temperature: 40 °C. (2) Mass-spectrometric conditions: The mass spectrometry analysis used an electrospray ionization (ESI) source, a positive ion analysis mode, and a multi-reaction monitoring (MRM) scan mode. The experimental results are shown in Table 4-1, Table 4-2, FIG. 2A, FIG. 2B, FIG. 2C, and FIG. 2D. Table 4-1. The plasma stability of the polypeptide compound

[2] = plasma stability test, human plasma; format: in vitro ADME; settings: 2 µM (test control)
Method: as §1, §2, §3, §4, §5, §6

[3] = biological target: human PSD95-PDZ2 (the tag was removed by TEV enzyme) (human) (UniProt P78352); assay: competitive ELISA; NA-1 reference value printed with compound 22; competitor Biotin-NA-1 at 0.3 µM
Chain of human PSD95-PDZ2 (the tag was removed by TEV enzyme) (human) (P78352 155-249 limits assumed): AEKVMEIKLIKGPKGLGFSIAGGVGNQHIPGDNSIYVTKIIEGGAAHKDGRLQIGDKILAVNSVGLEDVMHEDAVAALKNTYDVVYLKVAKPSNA

Biotin-PDZ2 (human) [4] = assay: binding ELISA; peptide coated at 2 µM, Biotin-PDZ2 titrated
[5] = biological target: human PSD95-PDZ2 (the tag was removed by TEV enzyme) (human) (UniProt P78352); assay: competitive ELISA; NA-1 reference value printed with compound 17; competitor Biotin-NA-1 at 0.3 µM
[6] = biological target: human PSD95-PDZ2 (the tag was removed by TEV enzyme) (human) (UniProt P78352); assay: competitive ELISA; NA-1 reference value printed with compound 16; competitor Biotin-NA-1 at 0.3 µM
[7] = biological target: human PSD95-PDZ2 (the tag was removed by TEV enzyme) (human) (UniProt P78352); assay: competitive ELISA; NA-1 reference value printed with compound 15; competitor Biotin-NA-1 at 0.3 µM
Biotin-PDZ2 (human) [8] = assay: binding ELISA; ratio of EC50 on Biotin-PDZ3 to EC50 on Biotin-PDZ2
PDZ2 = settings: Science, 2002, 298:846-50; cited from earlier work

## CC[C@H](C)C(=O)O[C@H]1C[C@@H](C)C=C2C=C[C@H](C)[C@H](CC[C@@H]3C[C@@H](O)CC(=O)O3)[C@H]21 [Lovastatin]
[1]; 0min (standard 100%)
  Relative remaining compound content (%): 100.0%
[1]; 10min
  Relative remaining compound content (%): 8.5% and 9.6%
[1]; 20min
  Relative remaining compound content (%): 1.8% and 2.1%
[1]; 30min
  Relative remaining compound content (%): 0.7% and 0.9%

## CC(C)[N+](C)(CCOC(=O)C1c2ccccc2Oc2ccccc21)C(C)C [Propantheline bromide]
[2]; 0min (standard 100%)
  Relative remaining compound content (%): 100.0%
[2]; 10min
  Relative remaining compound content (%): 80.2% and 84.0%
[2]; 20min
  Relative remaining compound content (%): 71.5% and 66.8%
[2]; 30min
  Relative remaining compound content (%): 63.4% and 53.4%
[2]; 60min
  Relative remaining compound content (%): 42.7% and 26.4%
[2]; 120min
  Relative remaining compound content (%): 10.9% and 7.2%

## NA-1 (peptide)
[3]
  IC50: 0.517 µM
Biotin-PDZ2 (human) [4]
  EC50: 0.083 µM
[5]
  IC50: 0.872 µM
[6]
  IC50: 0.872 µM
[7]
  IC50: 0.872 µM
Biotin-PDZ2 (human) [8]
  Specificity for PDZ2 (PDZ3/PDZ2): > 10000

## YGRKKRRQRRRKLSSIEADA (source 1..20: note = NA-1(ADA)) [negative control, mutant of NA-1 obtained by mutating the amino acids at positions 0 and -2 into Ala]
PDZ2
  ability to bind to PDZ2: no ability to bind to PDZ2
